Assay results reported in US12324813B2, “Method and pharmaceutical composition for rescuing retinal degeneration” (Taipei Veterans General Hospital, priority 2023, dated 2025).
“Also recorded” adds a separate entry of the source.

Legend:
ARPE-19 cells [1] = assay: Immunocytochemistry / immunofluorescence staining of ARPE-19 cells; assay type: cell-based
Experimental: In vitro, the cells were seeded in 24-well plates at a density of 2×10^5 per well and incubated at 37° C. with 5% CO2 for 24 h. […] After rinsing three times with PBS, the cells were permeabilized and blocked with a blocking solution (0.3% BSA and 0.1% Triton X-100 in PBS) at room temperature for 1 h. After blocking, cells were incubated with primary antibodies overnight at 4° C. The primary antibodies include DUSP6 (Abcam, Cambridge, UK), Phospho-ERK1/2 (Cell Signaling, Danvers, MA, USA), LC3B (Novus, Centennial, CO, USA), and SQSTM1/p62 (Abcam, Cambridge, UK). After incubation, cells were washed three times with PBST (0.1% Triton X-100 in PBS). Secondary antibodies (1:700) were applied for 3 h at room temperature. The secondary antibodies include IgG Alexa 488 goat anti-rabbit IgG and Alexa 594 goat anti-mouse IgG. Nuclei were stained with DAPI (1:1000) for 10 min at 4° C. and slides were observed by a light microscope (Olympus America, Melville, NY, USA). In vivo, the sample slices were pretreated with bleaching solution (1% NaH2PO4 and 2.5% H2O2) overnight at room temperature. Next, the primary antibodies, including DUSP6, Phospho-ERK1/2, LC3B, SQSTM1/p62, and RPE65, were incubated with the sample slices overnight at 4° C. After incubation, the samples were washed three times with PBST. Tests with secondary antibodies (1:700) were conducted for 1 h at room temperature. The secondary antibodies included IgG Alexa 488 goat anti-rabbit IgG and Alexa 594 goat anti-mouse IgG. After treating them with mounting solution, the slides were observed by a fluorescence microscope (Olympus America, Melville, NY, USA).

C57BL/6N mice = assay: DUSP6 inhibitor (BCI) treatment in NaIO3-treated mice; assay type: in vivo
Description: Retina samples were fixed with 4% paraformaldehyde (Sigma, Saint Louis, MO, USA) overnight, followed by 1×PBS. The methodology used for fixation, dehydration, clearing, infiltration, and embedding was developed according to that of Bio-Check Laboratories. […] The morphology of the retina was observed using a light microscope (Olympus America, Melville, NY, USA). Next, the thicknesses of the retina, defined as the distance between the inner limiting membrane, Bruch's membrane, and the outer nuclear layer (ONL), were measured by Image J (NIH, Bethesda, Maryland, USA). In vitro, the cells were seeded in 24-well plates at a density of 2×10^5 per well and incubated at 37° C. with 5% CO2 for 24 h. […] After rinsing three times with PBS, the cells were permeabilized and blocked with a blocking solution (0.3% BSA and 0.1% Triton X-100 in PBS) at room temperature for 1 h. After blocking, cells were incubated with primary antibodies overnight at 4° C. The primary antibodies include DUSP6 (Abcam, Cambridge, UK), Phospho-ERK1/2 (Cell Signaling, Danvers, MA, USA), LC3B (Novus, Centennial, CO, USA), and SQSTM1/p62 (Abcam, Cambridge, UK). After incubation, cells were washed three times with PBST (0.1% Triton X-100 in PBS). Secondary antibodies (1:700) were applied for 3 h at room temperature. The secondary antibodies include IgG Alexa 488 goat anti-rabbit IgG and Alexa 594 goat anti-mouse IgG. Nuclei were stained with DAPI (1:1000) for 10 min at 4° C. and slides were observed by a light microscope (Olympus America, Melville, NY, USA). In vivo, the sample slices were pretreated with bleaching solution (1% NaH2PO4 and 2.5% H2O2) overnight at room temperature. Next, the primary antibodies, including DUSP6, Phospho-ERK1/2, LC3B, SQSTM1/p62, and RPE65, were incubated with the sample slices overnight at 4° C. After incubation, the samples were washed three times with PBST. Tests with secondary antibodies (1:700) were conducted for 1 h at room temperature. The secondary antibodies included IgG Alexa 488 goat anti-rabbit IgG and Alexa 594 goat anti-mouse IgG. After treating them with mounting solution, the slides were observed by a fluorescence microscope (Olympus America, Melville, NY, USA). […] The structure of the retina was analyzed by real-time images and H & E staining. Proteins were collected from retina for further study.

ARPE-19 cells [2] = assay: Immunoblotting analysis of treated ARPE-19 cells; assay type: cell-based
Experimental: Cells were treated with the autophagy inhibitor Bafilomycin A1 (Sigma, Saint Louis, MO, USA) at 75 nM or DUSP6 inhibitor BCI (Sigma, Saint Louis, MO, USA) at 1.25 μM or 2.5 μM for 6 h at 37° C. Proteins were collected after treatment for further study. C57BL/6N mice were sacrificed and their eyes were collected. The excess muscle tissue outside the sclera was removed and then a needle was used to make a hole in the cornea then remove the whole cornea. Next, we eliminated the lens and retina, and finally lysed the remaining tissue RIPA buffer (10× Merck Millipore, Temecula, CA, USA) containing with 1% protease inhibitor. Meanwhile, in vitro ARPE-19 cells were collected and lysed with RIPA buffer containing with 1% protease inhibitor. Subsequently, cell lysates were centrifuged for 10 min at 4° C. and the supernatants were collected. Next, the protein concentrations were measured via the BCA Protein Quantification Kit. An equal weight of total protein was separated by electrophoresis on SDS/PAGE. After the proteins were transferred onto polyvinylidene difluoride (PVDF) membranes (Millipore, Bedford, MA, USA), the membranes were incubated with blocking buffer (1×TBST and 5% skim milk) for 1 h at room temperature. After the blocking step, the membranes were incubated with the following primary antibodies at 4° C. overnight: DUSP6 (Abcam, Cambridge, UK), Phospho-ERK1/2 (Cell Signaling, Danvers, MA, USA), ERK1/2 (Cell Signaling, Danvers, MA, USA), LC3B (Novus, Centennial, CO, USA), SQSTM1/p62 (Abcam, Cambridge, UK), LAMP2 (Abcam, Cambridge, UK), Beclin-1 (Cell Signaling, Danvers, MA, USA), and Bactin (Sigma, Saint Louis, MO, USA). Next, membranes were washed three times with TBST and incubated with HRP-conjugated secondary antibodies including Goat anti-mouse IgG (Invitrogen, Carlsbad, CA, USA) and Goat anti-rabbit IgG (Invitrogen, Carlsbad, CA, USA) for 1 h at RT. The antigen-antibody complexes were detected by an enhanced chemiluminescence (ECL) substrate kit (Bioman, Millipore, Bedford, MA, USA). Bands were analyzed and quantified by the ImageJ (NIH, Bethesda, MD, USA) analysis software.

ARPE-19 cells [3] = assay: Live imaging of GFP-LC3-RFP-LC3AG reporter in ARPE-19 cells; assay type: cell-based; settings: ARPE-19, BCI under NaIO3-induced oxidative stress
Description: Furthermore, to estimate the autophagic flux in BCI-treated ARPE-19 cells, we introduced the GFP-LC3-RFP-LC3AG gene into ARPE-19 cells and monitored live images taken after BCI treatment.

ARPE-19 cells [4] = assay: qRT-PCR of p62 mRNA in ARPE-19 cells; assay type: cell-based; settings: ARPE-19 co-treated with BCI and NaIO3 for 6 hours
Experimental: The cDNA was diluted to 200 ng/μL with sterile water and mixed with SYBR PCR Master Mix and primers. Amplification reaction was performed in a thermal cycler according to the manufacturer's instructions. mRNA abundance was quantified using the threshold cycle method. The mRNA expression of GAPDH was used as an internal control for normalization.

[5] = NaIO3 30 mg/kg i.p. then BCI 0.5 mg/kg intravitreal
[6] = NaIO3-treated ARPE-19 cells with Baf-A1 75 nM

SMILES | autophagosomes (fluorescence images) (ARPE-19 cells [1]; ARPE-19, BCI 1.25 μM, oxidative conditions) | speckles of p-ERK (ARPE-19 cells [1]; ARPE-19, BCI with or without NaIO3) | perinuclear p62 punctate (ARPE-19 cells [1]; ARPE-19 co-treated with NaIO3 and BCI) | cell-cell junction (tight junction marker ZO-1) (ARPE-19 cells [1]; RPE cells, NaIO3 vs control, BCI co-treatment) | ONL disorganization (H & E) (C57BL/6N mice; BCI 0.5 mg/kg intravitreal in presence of NaIO3-induced oxidative stress) | ONL thickness (C57BL/6N mice; BCI group vs NaIO3 group) | melanin deposition on the retina (C57BL/6N mice; BCI group vs mice treated with NaIO3 only) | co-localization of LC3B and p62 between the ONL and RPE layers (C57BL/6N mice; [5]) | phosphorylated ERK speckles around the ONL and RPE layers (C57BL/6N mice; [5]) | accumulation of p62 in mouse retinas (C57BL/6N mice; mouse retinas treated with BCI) | p-ERK/ERK ratio (ERK activity) (ARPE-19 cells [2]; NaIO3-treated ARPE-19, BCI 1.25 and 2.5 μM, 6 h) | autophagic markers (immunoblotting) (ARPE-19 cells [2]; NaIO3-treated ARPE-19, BCI 1.25 and 2.5 μM, hydrochloride) | GFP / RFP LC3 signal (late-stage autophagy) (ARPE-19 cells [3]) | p62 mRNA level (ARPE-19 cells [4]) | LC3B-II expression (ARPE-19 cells [2]; [6]) | p62 expression levels (ARPE-19 cells [2]; [6])
Cl.O=C1/C(=C/c2ccccc2)C(NC2CCCCC2)c2ccccc21 (mixture of isomers) [BCI, (E/Z)-BCI hydrochloride] | aggregation of autophagosomes | increased after BCI treatment, despite the presence or absence of NaIO3 | significantly upregulated | rescue the cell-cell junction | alleviated | restored the ONL thickness | significantly reduced | excessive co-localization | dramatically enhanced | significantly decreased | significantly increased in NaIO3-treated cells after BCI treatment in a dose-dependent manner | upregulation of autophagic markers upon BCI treatment in a dose-dependent manner; also recorded: also upregulated | GFP-positive signal being shifted to an RFP-positive signal | upregulated | – | –
CO/C1=C\C(C)=C\[C@@H](C)[C@@H](O)[C@@H](C)C/C(C)=C/C=C/[C@H](OC)[C@@H]([C@@H](C)[C@@H](O)[C@H](C)[C@@]2(O)C[C@@H](O)[C@H](C)[C@@H](C(C)C)O2)OC1=O [Baf-A1, Bafilomycin A1] | – | – | – | – | – | – | – | – | – | – | – | – | – | – | increase in LC3B-II expression in a dose-dependent manner | remained unchanged
